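In this assay, cells in 96-well plates receive the compound at five concentrations for 48 hours. Endpoints are linearly interpolated between the surrounding concentrations. TGI denotes the concentration required for complete inhibition of growth.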
Assays:
Assay in all cases: growth of human tumour cells (NCI), 48 h
LOX IMVI melanoma = test system: LOX IMVI melanoma
A549 NSCLC = test system: A549 NSCLC
NCI-H522 lung = test system: NCI-H522 lung
COLO 205 colon = test system: COLO 205 colon
HCT-116 colon = test system: HCT-116 colon
M19-MEL melanoma = test system: M19-MEL melanoma
DLD-1 colon = test system: DLD-1 colon
SF-539 CNS = test system: SF-539 CNS
MALME-3M melanoma = test system: MALME-3M melanoma
SN12C renal = test system: SN12C renal
DMS 114 small cell lung = test system: DMS 114 small cell lung
SK-MEL-28 melanoma = test system: SK-MEL-28 melanoma
MOLT-4 leukemia = test system: MOLT-4 leukemia
UO-31 renal = test system: UO-31 renal
K-562 leukemia = test system: K-562 leukemia
HOP-18 NSCLC = test system: HOP-18 NSCLC
SK-MEL-5 melanoma = test system: SK-MEL-5 melanoma
KM20L2 colon = test system: KM20L2 colon
SF-268 CNS = test system: SF-268 CNS
M14 melanoma = test system: M14 melanoma
RXF 393 renal = test system: RXF 393 renal
SF-295 CNS = test system: SF-295 CNS
NCI-H226 lung = test system: NCI-H226 lung
HCT-15 colon = test system: HCT-15 colon
DMS 273 small cell lung = test system: DMS 273 small cell lung
SNB-19 CNS = test system: SNB-19 CNS
OVCAR-4 ovarian = test system: OVCAR-4 ovarian
SK-MEL-2 melanoma = test system: SK-MEL-2 melanoma
SW-620 colon = test system: SW-620 colon
OVCAR-3 ovarian = test system: OVCAR-3 ovarian
SNB-78 CNS = test system: SNB-78 CNS
OVCAR-5 ovarian = test system: OVCAR-5 ovarian
SK-OV-3 ovarian = test system: SK-OV-3 ovarian
ACHN renal = test system: ACHN renal
CCRF-CEM leukemia = test system: CCRF-CEM leukemia
LXFL 529 NSCLC = test system: LXFL 529 NSCLC
HCC-2998 colon = test system: HCC-2998 colon
TK-10 renal = test system: TK-10 renal
SNB-75 CNS = test system: SNB-75 CNS
786-0 renal = test system: 786-0 renal
IGROV1 ovarian = test system: IGROV1 ovarian
U251 CNS = test system: U251 CNS
HOP-92 NSCLC = test system: HOP-92 NSCLC
HOP-62 NSCLC = test system: HOP-62 NSCLC
UACC-257 melanoma = test system: UACC-257 melanoma
OVCAR-8 ovarian = test system: OVCAR-8 ovarian
CAKI-1 renal = test system: CAKI-1 renal
SR leukemia = test system: SR leukemia
XF 498 CNS = test system: XF 498 CNS
KM12 colon = test system: KM12 colon
HT29 colon = test system: HT29 colon
EKVX NSCLC = test system: EKVX NSCLC
NCI-H23 lung = test system: NCI-H23 lung
HL-60(TB) leukemia = test system: HL-60(TB) leukemia
A498 renal = test system: A498 renal
NCI-H460 lung = test system: NCI-H460 lung
RPMI-8226 leukemia = test system: RPMI-8226 leukemia

## Cn1cc2ccccc2c1-c1nc(F)nc(Oc2ccc3c(c2)CC[C@@H]2C3CC[C@]3(C)C(O)CCC23)n1 (stereo partly drawn)
LOX IMVI melanoma
  TGI: 36.9 µM
A549 NSCLC
  TGI: 48.9 µM
NCI-H522 lung
  TGI: 26 µM
COLO 205 colon
  TGI: 44.2 µM
HCT-116 colon
  TGI: 35.8 µM
M19-MEL melanoma
  TGI: 47.8 µM
DLD-1 colon
  TGI: 30.9 µM
SF-539 CNS
  TGI: 32.7 µM
MALME-3M melanoma
  TGI: 39.9 µM
SN12C renal
  TGI: 33.8 µM
DMS 114 small cell lung
  TGI: 37.8 µM
SK-MEL-28 melanoma
  TGI: 33.2 µM
MOLT-4 leukemia
  TGI: 65.7 µM
UO-31 renal
  TGI: 63.6 µM
K-562 leukemia
  TGI: > 100 µM
HOP-18 NSCLC
  TGI: 35.7 µM
SK-MEL-5 melanoma
  TGI: 30.2 µM
KM20L2 colon
  TGI: 36.9 µM
SF-268 CNS
  TGI: 35.1 µM
M14 melanoma
  TGI: 30.1 µM
RXF 393 renal
  TGI: 72.3 µM
SF-295 CNS
  TGI: 30.2 µM
NCI-H226 lung
  TGI: > 100 µM
HCT-15 colon
  TGI: 33.4 µM
DMS 273 small cell lung
  TGI: 43.2 µM
SNB-19 CNS
  TGI: 34.7 µM
OVCAR-4 ovarian
  TGI: 28.5 µM
SK-MEL-2 melanoma
  TGI: 36.1 µM
SW-620 colon
  TGI: 43.5 µM
OVCAR-3 ovarian
  TGI: 31.8 µM
SNB-78 CNS
  TGI: 36.1 µM
OVCAR-5 ovarian
  TGI: 33.3 µM
SK-OV-3 ovarian
  TGI: 36.3 µM
ACHN renal
  TGI: 34.1 µM
CCRF-CEM leukemia
  TGI: 36.5 µM
LXFL 529 NSCLC
  TGI: 31.6 µM
HCC-2998 colon
  TGI: 36.4 µM
TK-10 renal
  TGI: 31.7 µM
SNB-75 CNS
  TGI: 28.6 µM
786-0 renal
  TGI: 30.5 µM
IGROV1 ovarian
  TGI: 30.8 µM
U251 CNS
  TGI: 28 µM
HOP-92 NSCLC
  TGI: 44.3 µM
HOP-62 NSCLC
  TGI: 33 µM
UACC-257 melanoma
  TGI: 36.3 µM
OVCAR-8 ovarian
  TGI: 36 µM

## C[C@]12CCC(=O)C=C1CC[C@@H]1[C@@H]2C(=O)C[C@@]2(C)[C@H]1CC[C@]2(O)C(=O)CO
A549 NSCLC
  TGI: > 100 µM
NCI-H522 lung
  TGI: > 100 µM
COLO 205 colon
  TGI: > 100 µM
HCT-116 colon
  TGI: > 100 µM
M19-MEL melanoma
  TGI: > 100 µM
DLD-1 colon
  TGI: > 100 µM
SF-539 CNS
  TGI: > 100 µM
MALME-3M melanoma
  TGI: > 100 µM
CAKI-1 renal
  TGI: > 100 µM
SN12C renal
  TGI: > 100 µM
SR leukemia
  TGI: > 100 µM
XF 498 CNS
  TGI: > 100 µM
DMS 114 small cell lung
  TGI: > 100 µM
SK-MEL-28 melanoma
  TGI: > 100 µM
MOLT-4 leukemia
  TGI: > 100 µM
UO-31 renal
  TGI: > 100 µM
K-562 leukemia
  TGI: > 100 µM
HOP-18 NSCLC
  TGI: > 100 µM
SK-MEL-5 melanoma
  TGI: > 100 µM
KM20L2 colon
  TGI: > 100 µM
SF-268 CNS
  TGI: > 100 µM
M14 melanoma
  TGI: > 100 µM
KM12 colon
  TGI: > 100 µM
HT29 colon
  TGI: > 100 µM
RXF 393 renal
  TGI: > 100 µM
SF-295 CNS
  TGI: > 100 µM
NCI-H226 lung
  TGI: > 100 µM
HCT-15 colon
  TGI: > 100 µM
EKVX NSCLC
  TGI: > 100 µM
DMS 273 small cell lung
  TGI: > 100 µM
SNB-19 CNS
  TGI: > 100 µM
OVCAR-4 ovarian
  TGI: > 100 µM
SK-MEL-2 melanoma
  TGI: > 100 µM
SW-620 colon
  TGI: > 100 µM
OVCAR-3 ovarian
  TGI: > 100 µM
NCI-H23 lung
  TGI: > 100 µM
SK-OV-3 ovarian
  TGI: > 100 µM
ACHN renal
  TGI: > 100 µM
CCRF-CEM leukemia
  TGI: > 100 µM
LXFL 529 NSCLC
  TGI: > 100 µM
HCC-2998 colon
  TGI: > 100 µM
TK-10 renal
  TGI: > 100 µM
SNB-75 CNS
  TGI: > 100 µM
HL-60(TB) leukemia
  TGI: > 100 µM
A498 renal
  TGI: > 100 µM
786-0 renal
  TGI: > 100 µM
IGROV1 ovarian
  TGI: > 100 µM
U251 CNS
  TGI: > 100 µM
HOP-92 NSCLC
  TGI: > 100 µM
NCI-H460 lung
  TGI: > 100 µM
RPMI-8226 leukemia
  TGI: > 100 µM
OVCAR-8 ovarian
  TGI: > 100 µM

From PubChem BioAssay (NCI)
